From patent US20240417773A1 (priority 2022, published 2024) come the findings set out here.

Experiment [1] concerns spores of the Bacillus atrophaeus. As to conditions: 50° C., 1.74 mg/L; for Observation result: excitation 365 nm.
Method: A bacterial carrier on each indicator includes about 106 spores of the Bacillus atrophaeus. The six indicators are divided into three groups, each of which has two indicators. […] A treatment for 0 sec at 50° C. means that no treatment is performed, and is a control group; a treatment for 20 sec at 50° C. simulates a condition of incomplete sterilization; and treatment for 60 sec at 50° C. simulates a condition of successful sterilization where all the spores are supposed to be skilled theoretically. An exposure position of the indicator is located at a cold spot of a sterilization device. A sample subjected to the sterilization treatment is transferred onto a bechtop. Bacteria strips included in the biological indicators in the three groups after the sterilization treatment are taken out by means of sterilized tweezers, put in a sterile centrifuge tube, added with an appropriate quantity of sterile recovered liquid (0.1% polysorbate 80, and 0.03 M phosphate buffer liquid with pH being 7.2), fully oscillated and crushed. Afterwards, the centrifuge tube is put in an ice-bath for cooling.
Then, a sample in the centrifuge tube is subjected to centrifugation (a centrifugal force being 2000×g, a temperature being 4° C. and a centrifugation duration being 20 min), an obtained supernatant passes through a 10 μm millipore filter (a spore diameter is 1 μm to 2 μm, so in order to make the spores pass through the filter and the bacteria strip slags are blocked, a filter of 2 μm or above is needed), so as to obtain filtrate.
An appropriate amount of sterile recovered liquid is added into filtered slags (a main component is a crushed bacteria strip fiber) obtained after the above centrifugal filtration, after oscillating and shaking well, the above centrifugal filtration process is repeated, filtrate including thermal-damaged spores is further recovered, repetition is performed for 2 to 3 times like this, and the filtrate obtained by each centrifugal filtration is gathered as the spore suspension.
(§1) One drop of the liquid medium (30 g/L agar and 15 g/L tryptic soy broth) subjected to high-temperature sterilization is dropwise added onto an object slide, after this drop of the liquid medium is solidified, one drop of the 4-MUG with a concentration being 210 mg/L is dropwise added onto the solid medium, and a moment later, the 4-MUG fully infiltrates into the solid medium.
(§2) One drop of the spore suspension (including the thermal-damaged spores) is dropwise added onto the solid medium.
The number and sizes of fluorescent spots are observed under the observation system. […]
Experiment [2] relates to spore strips produced by Xinhua Mesa®Strip. As to conditions: 50° C., 1.74 mg/L; for Observation result: excitation 365 nm.
Method: This embodiment selects six spore strips produced by Xinhua Mesa®Strip, which are divided into three groups and each group has two strips. […] A treatment for 0 sec at 50° C. means that no treatment is performed, and is a control group; a treatment for 20 sec at 50° C. simulates a condition of incomplete sterilization; and treatment for 60 sec at 50° C. simulates a condition of successful sterilization where all the spores are supposed to be skilled theoretically. An exposure position of the indicator is located at a cold spot of a sterilization device. A sample subjected to the sterilization treatment is transferred onto a bechtop. Bacteria strips included in the biological indicators in the three groups after the sterilization treatment are taken out by means of sterilized tweezers, put in a sterile centrifuge tube, added with an appropriate amount of sterile recovered liquid (0.1% polysorbate 80, and 0.03 M phosphate buffer liquid with pH being 7.2), fully oscillated and crushed. Afterwards, the centrifuge tube is put in an ice-bath for cooling.
as §1, §2
The number and sizes of fluorescent spots are observed under the observation system. The observation system is composed of four parts: 1) a stereoscopic microscope (a brand model may be: Nikon SMZ800); 2) a time gating camera (a brand model may be: Photonics Research Systems, Salford, UK) mounted on the above stereoscopic microscope; 3) a xenon flash lamp (a brand model may be: PerkinElmer, Waltham, MA) forming a 45° angle relative to a sample; and 4) a temperature-controlled microscope object slide stand (a brand model may be: Thermal).
Parameters set for the observation system are as follows: the xenon flash lamp has an excitation wavelength of 365 nm and an excitation slit width of 10 nm. Observed by the stereoscopic microscope, an emission wavelength is 544 nm, and an emission slit is 10 nm.

SMILES strings stand for the structures. Where two headings read alike, the source gives them in different places.

Regarding `OO` [hydrogen peroxide], the Conclusion entry in experiment [1] (20 sec) is given as “Incomplete”; in experiment [1] (60 sec) it was “Complete”; in experiment [2] (20 sec) it was “Incomplete”; in experiment [2] (60 sec), “Complete”. The Observation result in experiment [1] (20 sec) is on record as “A certain quantity of scattered”; in experiment [1] (60 sec) it was “No fluorescent spot”; in experiment [2] (20 sec), “A certain quantity of scattered”; in experiment [2] (60 sec) it was “No fluorescent spot”.
